Experiment [1] in a line: NIH-3T3 fibroblast cytotoxicity, dose response, cytotoxicity control, cell-based, fluorescence, Alamar Blue, secondary assay (AID 2327).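 Note: NIH-3T3 mouse fibroblasts cultured with fluconazole at 8 µg/mL.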 The class given is functional.
A short description of a further experiment: cells. Type of experiment: functional, cell-based.
A further experiment concerns the target T1, Exodeoxyribonuclease V (Escherichia coli (strain K12), UniProt P04993+P07648+P08394).
T1 sequence (P04993 whole entry): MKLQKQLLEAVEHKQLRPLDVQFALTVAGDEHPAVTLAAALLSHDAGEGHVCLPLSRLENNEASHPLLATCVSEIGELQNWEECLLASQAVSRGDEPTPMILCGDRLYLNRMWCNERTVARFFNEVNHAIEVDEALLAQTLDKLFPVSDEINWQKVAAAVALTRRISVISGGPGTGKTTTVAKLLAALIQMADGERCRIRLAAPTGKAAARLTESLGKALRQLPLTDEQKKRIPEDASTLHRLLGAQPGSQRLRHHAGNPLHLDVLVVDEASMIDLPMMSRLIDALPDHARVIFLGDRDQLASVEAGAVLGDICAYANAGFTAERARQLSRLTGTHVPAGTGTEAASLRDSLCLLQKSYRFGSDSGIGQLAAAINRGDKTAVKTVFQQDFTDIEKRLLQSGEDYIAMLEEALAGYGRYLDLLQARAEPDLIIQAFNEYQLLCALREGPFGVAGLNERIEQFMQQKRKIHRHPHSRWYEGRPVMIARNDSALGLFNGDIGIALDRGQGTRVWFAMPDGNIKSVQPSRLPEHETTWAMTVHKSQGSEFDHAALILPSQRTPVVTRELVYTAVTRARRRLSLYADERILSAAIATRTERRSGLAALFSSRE
T1 sequence (P07648 whole entry): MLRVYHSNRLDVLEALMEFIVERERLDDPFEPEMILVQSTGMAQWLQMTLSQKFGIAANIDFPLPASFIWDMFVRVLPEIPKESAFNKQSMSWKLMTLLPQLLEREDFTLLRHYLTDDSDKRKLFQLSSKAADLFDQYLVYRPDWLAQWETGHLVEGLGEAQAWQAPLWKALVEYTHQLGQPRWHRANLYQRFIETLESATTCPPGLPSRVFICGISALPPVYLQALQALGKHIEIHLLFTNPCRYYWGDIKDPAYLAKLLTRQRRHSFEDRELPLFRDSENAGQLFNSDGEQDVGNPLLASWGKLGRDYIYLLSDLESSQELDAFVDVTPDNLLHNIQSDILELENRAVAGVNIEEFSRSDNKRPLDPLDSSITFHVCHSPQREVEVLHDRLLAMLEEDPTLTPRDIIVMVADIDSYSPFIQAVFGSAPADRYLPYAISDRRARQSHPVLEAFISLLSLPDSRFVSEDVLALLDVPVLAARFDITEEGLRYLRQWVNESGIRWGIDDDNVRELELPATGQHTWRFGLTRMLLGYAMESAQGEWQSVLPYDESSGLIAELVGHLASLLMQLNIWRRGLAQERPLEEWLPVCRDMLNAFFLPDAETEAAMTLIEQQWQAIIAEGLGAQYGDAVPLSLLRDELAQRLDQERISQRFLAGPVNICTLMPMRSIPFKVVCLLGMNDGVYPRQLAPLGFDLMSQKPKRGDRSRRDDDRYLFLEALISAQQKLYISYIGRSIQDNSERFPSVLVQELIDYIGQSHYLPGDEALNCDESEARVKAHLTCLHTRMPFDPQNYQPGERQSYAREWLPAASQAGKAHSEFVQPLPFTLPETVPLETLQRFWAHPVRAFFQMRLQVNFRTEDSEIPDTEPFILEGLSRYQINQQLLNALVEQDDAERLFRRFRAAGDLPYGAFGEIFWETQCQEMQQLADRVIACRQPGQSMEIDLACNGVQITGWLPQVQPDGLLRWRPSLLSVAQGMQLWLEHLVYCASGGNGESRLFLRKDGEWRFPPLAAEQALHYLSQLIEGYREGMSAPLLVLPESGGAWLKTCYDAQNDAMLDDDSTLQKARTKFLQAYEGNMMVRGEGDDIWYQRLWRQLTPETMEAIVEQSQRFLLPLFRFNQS
T1 sequence (P08394 whole entry): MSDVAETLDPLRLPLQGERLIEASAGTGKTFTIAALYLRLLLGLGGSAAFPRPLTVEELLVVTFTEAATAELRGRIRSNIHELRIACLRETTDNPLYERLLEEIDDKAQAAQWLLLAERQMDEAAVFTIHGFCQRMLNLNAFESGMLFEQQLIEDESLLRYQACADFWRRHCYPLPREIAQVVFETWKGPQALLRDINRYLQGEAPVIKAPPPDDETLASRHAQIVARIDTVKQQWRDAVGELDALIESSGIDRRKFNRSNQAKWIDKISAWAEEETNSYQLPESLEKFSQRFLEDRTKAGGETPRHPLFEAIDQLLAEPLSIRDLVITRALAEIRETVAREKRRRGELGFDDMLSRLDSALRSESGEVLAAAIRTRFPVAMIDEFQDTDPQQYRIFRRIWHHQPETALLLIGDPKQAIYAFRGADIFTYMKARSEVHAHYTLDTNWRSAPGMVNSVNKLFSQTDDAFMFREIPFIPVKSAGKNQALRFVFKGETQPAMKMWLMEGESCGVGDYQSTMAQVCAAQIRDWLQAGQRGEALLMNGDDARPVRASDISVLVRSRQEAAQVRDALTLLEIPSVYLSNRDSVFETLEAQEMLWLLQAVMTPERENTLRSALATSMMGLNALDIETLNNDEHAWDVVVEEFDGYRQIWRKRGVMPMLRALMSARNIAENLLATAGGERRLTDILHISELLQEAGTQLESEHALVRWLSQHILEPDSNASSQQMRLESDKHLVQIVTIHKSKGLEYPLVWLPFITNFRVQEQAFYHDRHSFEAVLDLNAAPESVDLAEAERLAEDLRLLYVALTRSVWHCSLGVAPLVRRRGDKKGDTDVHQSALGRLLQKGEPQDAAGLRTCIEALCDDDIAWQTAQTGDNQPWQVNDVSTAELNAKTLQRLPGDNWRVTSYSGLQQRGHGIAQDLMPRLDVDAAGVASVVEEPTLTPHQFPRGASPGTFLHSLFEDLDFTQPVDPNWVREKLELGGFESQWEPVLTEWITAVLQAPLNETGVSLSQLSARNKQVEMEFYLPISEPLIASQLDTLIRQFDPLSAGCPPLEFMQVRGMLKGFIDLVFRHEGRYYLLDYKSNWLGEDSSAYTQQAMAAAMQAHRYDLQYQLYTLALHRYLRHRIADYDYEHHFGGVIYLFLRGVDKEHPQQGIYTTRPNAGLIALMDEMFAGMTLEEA
As to the kind of experiment: E. coli RecBCD inhibitors, dose response, counter-screen for AddAB inhibitor project, absorbance, V66 E. coli, mutant T4 phage (AID 492957). The class given is functional, cell-based, Escherichia coli str. K-12 substr. MG1655.

Experiment [2] deals with Serine/threonine-protein kinase Chk2 (Homo sapiens, UniProt O96017). Type of experiment: functional.
Experiment [3] has as its target Serine/threonine-protein kinase Nek4 (Homo sapiens, UniProt P51957). The class given is functional.
In another experiment the target is SRSF protein kinase 1 (Homo sapiens, UniProt Q96SB4). Type of experiment: functional.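 Note: measured as one member of a kinome-wide kinase profiling panel.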

Calls of active or inactive are those of the source.

Serine/threonine-protein kinase Chk2, sequence (O96017 whole entry): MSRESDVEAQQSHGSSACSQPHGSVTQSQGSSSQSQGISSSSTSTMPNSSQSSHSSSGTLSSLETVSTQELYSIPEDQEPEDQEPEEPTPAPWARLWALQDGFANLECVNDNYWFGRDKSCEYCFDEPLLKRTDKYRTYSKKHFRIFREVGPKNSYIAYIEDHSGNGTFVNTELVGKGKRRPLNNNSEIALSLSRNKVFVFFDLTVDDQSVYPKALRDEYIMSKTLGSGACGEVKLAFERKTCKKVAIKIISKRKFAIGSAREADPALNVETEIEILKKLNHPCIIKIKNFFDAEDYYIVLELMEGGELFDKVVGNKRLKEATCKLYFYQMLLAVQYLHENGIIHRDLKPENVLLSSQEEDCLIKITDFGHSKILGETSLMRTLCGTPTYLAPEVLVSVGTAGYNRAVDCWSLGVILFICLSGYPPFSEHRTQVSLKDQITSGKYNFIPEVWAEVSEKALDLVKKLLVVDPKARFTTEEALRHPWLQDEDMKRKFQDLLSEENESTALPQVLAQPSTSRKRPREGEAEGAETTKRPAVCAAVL
Serine/threonine-protein kinase Nek4, sequence (P51957 whole entry): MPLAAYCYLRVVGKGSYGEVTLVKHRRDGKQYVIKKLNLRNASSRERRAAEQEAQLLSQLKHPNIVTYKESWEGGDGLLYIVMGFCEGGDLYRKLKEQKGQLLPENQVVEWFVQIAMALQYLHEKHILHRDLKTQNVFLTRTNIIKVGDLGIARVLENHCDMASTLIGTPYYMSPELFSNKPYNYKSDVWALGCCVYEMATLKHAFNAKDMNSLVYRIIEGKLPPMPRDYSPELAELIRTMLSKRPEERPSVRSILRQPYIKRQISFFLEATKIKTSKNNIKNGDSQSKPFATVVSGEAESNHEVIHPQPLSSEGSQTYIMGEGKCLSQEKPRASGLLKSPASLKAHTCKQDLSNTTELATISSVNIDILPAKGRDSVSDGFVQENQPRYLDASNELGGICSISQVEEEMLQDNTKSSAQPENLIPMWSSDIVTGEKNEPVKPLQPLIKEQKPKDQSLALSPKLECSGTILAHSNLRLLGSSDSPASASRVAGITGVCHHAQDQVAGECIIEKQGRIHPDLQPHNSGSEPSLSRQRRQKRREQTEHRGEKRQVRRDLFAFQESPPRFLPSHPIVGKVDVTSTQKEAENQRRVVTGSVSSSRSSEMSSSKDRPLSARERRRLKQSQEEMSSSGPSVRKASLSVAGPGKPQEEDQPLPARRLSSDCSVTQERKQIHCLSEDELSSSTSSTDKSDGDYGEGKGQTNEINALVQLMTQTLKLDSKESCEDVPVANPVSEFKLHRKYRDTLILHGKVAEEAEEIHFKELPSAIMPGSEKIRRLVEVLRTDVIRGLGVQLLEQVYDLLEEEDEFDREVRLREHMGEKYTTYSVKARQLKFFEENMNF
SRSF protein kinase 1, sequence (Q96SB4 whole entry): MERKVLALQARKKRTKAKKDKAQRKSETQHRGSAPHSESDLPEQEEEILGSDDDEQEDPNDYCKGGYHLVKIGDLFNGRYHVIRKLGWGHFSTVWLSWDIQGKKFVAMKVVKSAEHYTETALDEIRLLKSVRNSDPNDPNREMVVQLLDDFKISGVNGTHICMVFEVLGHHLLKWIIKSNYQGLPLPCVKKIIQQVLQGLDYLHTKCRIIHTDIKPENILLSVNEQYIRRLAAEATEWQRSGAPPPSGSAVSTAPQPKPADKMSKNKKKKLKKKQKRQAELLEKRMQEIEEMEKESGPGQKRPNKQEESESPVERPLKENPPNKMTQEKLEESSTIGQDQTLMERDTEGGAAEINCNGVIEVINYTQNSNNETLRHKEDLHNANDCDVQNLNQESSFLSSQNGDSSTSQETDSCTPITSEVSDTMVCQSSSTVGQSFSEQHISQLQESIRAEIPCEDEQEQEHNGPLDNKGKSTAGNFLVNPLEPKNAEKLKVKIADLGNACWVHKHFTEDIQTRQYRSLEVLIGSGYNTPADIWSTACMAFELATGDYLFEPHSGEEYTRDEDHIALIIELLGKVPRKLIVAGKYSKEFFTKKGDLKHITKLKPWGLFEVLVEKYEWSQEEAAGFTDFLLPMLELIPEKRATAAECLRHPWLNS

Consider `Cc1cc(NC(c2ccc(Cl)cc2)c2ccc3cccnc3c2O)no1` (stereo unspecified), for which the results for the EC50 (in experiment [1]; in “cells”) were 22 µM (active) and > 350 µM (not active), respectively. The IC50 on Exodeoxyribonuclease V was > 119 µM (inactive).

Consider `CS(=O)(=O)N(Cc1ccc2[nH]c(=O)c3cccn3c2c1)C1CC1`, for which the Ki in experiment [2] was > 1.58 µM (inactive); in experiment [3], 0.251 µM (active); on SRSF protein kinase 1 it was 0.2 µM (active).

The values above are taken from ChEMBL document CHEMBL1201862, “PubChem BioAssay data set” (2004).
